From article PMC7942396, “Drug Repurposing Screen for Compounds Inhibiting the Cytopathic Effect of SARS-CoV-2” (Frontiers in Pharmacology, 2021)
Counter-ions that a name gives are not always drawn. Like-named read-outs stand apart in the source and are kept apart here.

Experiments:
[1] = system: SARS-CoV-2 (USA_WA1/2020); assay: microbe, parasite or virus in culture; type: cell-based; settings: for EC50: read-out: CPE EC50
[2] = SARS-CoV-2 CPE assay, Vero E6 cells, confirmed anti-SARS-CoV-2 compounds
[3] = SARS-CoV-2 CPE assay, Vero E6 cells, efficacy
[4] = cytotoxicity counter-assay, Vero E6 cells without virus
[5] = read-out: Cytotox CC50, cytotoxicity counter-assay, Vero E6 cells without virus
[6] = SARS-CoV-2 CPE assay, Vero E6 cells
[7] = […], DMSO 0%, no-virus control 100%, hit confirmation
[8] = Vero E6 cells without virus, 72 h

| SMILES | EC50 [1, 2] | CPE % Efficacy [1, 3] | % Cytotox (Vero E6 cells; [4]) | CC50 (Vero E6 cells; [5]) | other results |
| --- | --- | --- | --- | --- | --- |
| O=C(O)c1ccc(CCCc2ccc(OCCc3ccc(F)cc3)cc2)o1 [D-942] | 0.14 µM | 120.3% | 53.7% | 11.2 µM |  |
| COc1cccc(CCc2ccccc2OCC(CN(C)C)OC(=O)CCC(=O)O)c1.Cl (stereo not shown) [Sarpogrelate hydrochloride] | 11.2 µM | 30.1% | 21.2% | 15.8 µM |  |
| O=C(N[C@@H](c1ccccc1)[C@@H]1CCCCN1)c1cccc(C(F)(F)F)c1Cl [SSR-504734] |  |  | 15.7% | 7.94 µM | CPE % Efficacy [1, 6]: 31.7%; EC50 [1, 6]: 14.1 µM |
| CO/C1=C\C(C)=C\[C@@H](C)[C@@H](O)[C@@H](C)C/C(C)=C/C=C/[C@H](OC)[C@@H]([C@@H](C)[C@@H](O)[C@H](C)[C@@]2(O)C[C@@H](O)[C@H](C)[C@@H](C(C)C)O2)OC1=O [Bafilomycin A1 from Streptomyces griseus] | 0.0113 µM | 69.3% | 58.6% | 0.1 µM |  |
| CN1CCN(C(=O)c2ccc(Nc3nccc(-c4cccs4)n3)cc2Cl)CC1 | 11.2 µM | 71.5% | 55.6% | 10 µM |  |
| Br.O=C(CN1C2=NCCN2c2ccccc21)c1ccc(-c2ccccc2)cc1 [CCT 031374 hydrobromide] | 7.94 µM | 63.4% | 33.8% | 12.6 µM |  |
| CN(C)CCC=C1c2ccccc2C(C)(C)c2ccccc21.Cl [Melitracen hydrochloride, reference compound] |  |  |  |  | CPE % Efficacy [1, 7]: 97.1%; EC50 [1]: 10 µM; % Cytotox (Vero E6 cells; [8]): <30% |
| CCc1ccccc1OC[C@@H](O)CN[C@H]1CCCc2ccccc21.Cl [SR 59230A hydrochloride] |  |  | 13.9% | 17.8 µM | CPE % Efficacy [1, 6]: 108.4%; EC50 [1, 6]: 11.2 µM |
| CC(=O)O/N=C1\C(=O)N(Cc2cc(Cl)ccc2Cl)c2ccc(Cl)cc21 [LDN-57444] | 11.2 µM | 129.8% |  |  | % Cytotox (Vero E6 cells): 40.6%; CC50 (Vero E6 cells): 12.6 µM |
| COc1ccc(C2CC(c3ccccc3)=NN2c2ccc(S(N)(=O)=O)cc2)cc1 (stereo not shown) [ML-141] | 8.91 µM | 65.2% | 23.8% |  |  |
| CCCCCCCCC(=O)N[C@H](CN1CCCC1)[C@H](O)c1ccc2c(c1)OCCO2 [Genz-123346 (free base), reference compound] |  |  |  |  | CPE % Efficacy [1, 7]: 99.4%; EC50 [1]: 10 µM; % Cytotox (Vero E6 cells; [8]): <30% |
| CC[C@H](NC(=O)[C@H](CS(=O)(=O)CC1CC1)N[C@@H](c1ccc(F)cc1)C(F)(F)F)C(=O)C(=O)NC1CC1 [VBY-825, reference compound] |  |  |  |  | CPE % Efficacy [1, 7]: 97.8%; EC50 [1]: 0.14 µM; % Cytotox (Vero E6 cells; [8]): <30% |
| Cl.Fc1ccc2c(CCNCc3cccc(OCC(F)(F)C(F)F)c3)c[nH]c2c1 [Lu AE58054 hydrochloride, reference compound] |  |  |  |  | CPE % Efficacy [1, 7]: 97.2%; EC50 [1]: 10 µM; % Cytotox (Vero E6 cells; [8]): <30% |
| O=c1[nH]c2ccccc2n1C1CCN(Cc2ccc(-c3nc4cc5nc[nH]c5cc4nc3-c3ccccc3)cc2)CC1 [Akt-I-1,2] |  |  | 34.2% | 12.6 µM | CPE % Efficacy [1, 6]: 91.3%; EC50 [1, 6]: 11.2 µM |
| CCOC(=O)N[C@@H]1CC[C@@H]2[C@@H](C1)C[C@H]1C(=O)O[C@H](C)[C@H]1[C@H]2/C=C/c1ccc(-c2cccc(F)c2)cn1.O=S(=O)(O)O [Vorapaxar Sulfate] | 4.47 µM | 57.7% | 32.4% | 12.6 µM |  |
| Cc1ccc(-c2c(C(=O)CCl)n(CCCO)c3ncnc(N)c23)cc1 [CMK] |  |  | 15.2% |  | CPE % Efficacy [1, 6]: 38.9%; EC50 [1, 6]: 12.6 µM |

| SMILES | EC50 [1, 2] | CPE % Efficacy [1, 3] | % Cytotox (Vero E6 cells; [4]) | CC50 (Vero E6 cells; [5]) | other results |
| --- | --- | --- | --- | --- | --- |
| O=C1NC(=O)c2cc(Nc3ccccc3)c(Nc3ccccc3)cc21 [DAPH] | 3.98 µM | 53.9% | 79.5% | 11.2 µM |  |
| CN1CCCCC1Cn1cc(C(=O)c2cc([N+](=O)[O-])ccc2I)c2ccccc21 (stereo not shown) [AM1241, reference compound] |  |  |  |  | CPE % Efficacy [1, 7]: 97.6%; EC50 [1]: 10 µM; % Cytotox (Vero E6 cells; [8]): <30% |
| COc1cc2c(Nc3ccc(NC(=O)c4ccccc4)cc3)ncnc2cc1OCCCN1CCOCC1 [ZM-447439] |  |  | 38.3% | 12.6 µM | CPE % Efficacy [1, 6]: 49.6%; EC50 [1, 6]: 14.1 µM |
| Cc1cnc(NC(=O)c2cc(S(=O)(=O)N(C)C)ccc2N2CCCC2)s1 [ML414, reference compound] |  |  |  |  | EC50 [1]: 3.2 µM; % Cytotox (Vero E6 cells; [8]): <30% |
| O=C1NC(=O)/C(=C/c2cccc(C(F)(F)F)c2)S1 [SMI-4a] |  |  | 29.5% |  | CPE % Efficacy [1, 6]: 43.9%; EC50 [1, 6]: 12.6 µM |
| C[C@@H]1O[C@@H](O[C@H]2[C@H](OC(=O)[C@]34CCC(C)(C)C[C@H]3C3=CCC5[C@@]6(C)CC[C@H](O[C@@H]7O[C@H](CO[C@@H]8OC[C@H](O)[C@H](O)[C@H]8O)[C@@H](O)[C@H](O)[C@H]7O)C(C)(C)C6CC[C@@]5(C)[C@]3(C)C[C@H]4O)OC[C@@H](O)[C@@H]2O)[C@H](O)[C@H](O)[C@H]1O[C@@H]1OC[C@H](O)[C@H](O[C@@H]2OC[C@@H](O)[C@H](O)[C@H]2O)[C@H]1O (stereo partly shown) [NCGC00384864] | 0.6 µM | 46.4% | 58.6% | 1.91 µM |  |
| Cc1nc(C)c(CN2CCN(C(c3ccc(F)cc3)c3ccc(F)cc3)CC2)nc1C [CXC-195] |  |  | 0.0% |  | CPE % Efficacy [1, 6]: 32.4%; EC50 [1, 6]: 12.6 µM |
| CC(C)c1cccc2c(-c3ccccc3)cc(-c3ccc(-c4ccc(C(=O)O)cc4)[nH]3)nc12 [ER 50891] | 11.2 µM | 88.0% | 16.9% | 15.8 µM |  |
| CCN(CC)CCCCNc1nc2cc(Cl)c(Cl)cc2nc1-c1ccc(-c2cccs2)s1 [PD-0220245] | 3.55 µM | 35.5% | 107.5% | 11.2 µM |  |
| COc1ccc(NS(=O)(=O)c2sc3ccc(Cl)cc3c2C)cc1N1CCNCC1 [SB 271046 hydrochloride, reference compound] |  |  |  |  | CPE % Efficacy [1, 7]: 107.5%; EC50 [1]: 10 µM; % Cytotox (Vero E6 cells; [8]): <30% |
| c1ccc(-c2ccc(CNc3nc(-c4ccccn4)nnc3-c3ccccc3)cc2)cc1 [ML-228] | 0.63 µM | 69.4% | 74.8% | 0.56 µM |  |
| Cc1nc(Nc2cnn(C3CCNCC3)c2)nc2c1N(C)C(=O)c1cc3ccccc3cc1N2C [HTH-01-015] | 11.2 µM | 95.2% | 40.5% | 12.6 µM |  |
| CCC(C)C(=O)OC1CC(O)C23C4OCC5(C(O)CC2C1(C)C(O)O4)C3C(=O)CC1(C)C(c2ccoc2)CC2OC215 (stereo not shown) [NCGC00381227] | 3.91 µM | 82.9% | 53.1% | 7.8 µM |  |
| OC(CNc1ccccc1)Cn1c2ccc(Br)cc2c2cc(Br)ccc21 (stereo not shown) [P7C3] | 3.98 µM | 65.2% | 54.5% | 11.2 µM |  |
| CCN(CC)CCCS(=O)(=O)N[C@H](CCc1ccccc1)c1nc(Cc2ccc(Br)cc2)no1 [CpdD hydrochloride, reference compound] |  |  |  |  | CPE % Efficacy [1, 7]: 96.9%; EC50 [1]: 10 µM; % Cytotox (Vero E6 cells; [8]): <30% |
| C=C1C(=O)O[C@H]2C3=C(C)CCC[C@]3(C)C(=O)C[C@@H]12 [NCGC00168931] | 2.24 µM | 40.6% | 69.6% | 10 µM |  |
